Measurements as given in patent US20060154990A1, “Use of MEK inhibitors in treating abnormal cell growth” (AGOURON PHARMACEUTICALS, INC., priority 2004, published 2006).
Several values for one entry are separate records, joined by “and”; a condition that tells them apart may be missing. Equal entries are not always repeated. Where two headings read alike, the source gives them in different places. Marks after values point to notes of the source that are not given here.

How the values were obtained:
[1] = tested on: C26 mouse colon carcinoma; assay: Antitumor activity against C26 mouse colon carcinoma
[2] = tested on: ERK phosphorylation in tumor cells; assay: ERK phosphorylation in tumor cells grown in culture with 10% serum; type: cell-based; details: read-out: IC50, reducing ERK phosphorylation
[3] = Metabolites of [14C] Compound 1 in liver microsomes; type: in vitro ADME, monkey; details: [C-14] Compound 1 10 μM, 90 mins
Method: (§1) Incubations were performed in hepatocytes for 3 hours and liver microsomes for 1.5 hours and were stopped with the addition of methanol. HPLC, in conjuction with ionspray 3D iontrap mass spectrometry, and simultaneous radioactive monitoring were used to detect and identify the resulting metabolites.
(§2) This acid cleavage product is further metabolized to form hydroxylated (M 11, 16% in rat) and hydroxylated, defluorinated products (M 17, 19% in rat).

pERK in BxPC-3 tumors = assay: Tumor pERK inhibition and PK-PD in BxPC-3 xenograft; type: in vivo, mice; details: BxPC-3 tumor, 25 mg/kg oral
[4] = tested on: RXF-393 renal cell carcinoma; assay: Antitumor activity in RXF-393 tumor model; type: in vivo, mice; details: oral 25 mg/kg once a day, euthanized on day 8 of dosing
panel of 27 kinases = assay: Specificity against a panel of 27 kinases; details: 10 μM
[5] = Metabolites of [14C] Compound 1 in liver microsomes; type: in vitro ADME, dog; details: [C-14] Compound 1 10 μM, 90 mins
Method: as §1, §2

[6] = Plasma pharmacokinetics after multiple oral doses in advanced cancer patients
H23 NSCL xenograft = assay: Antitumor activity in H23 tumor model; type: in vivo, mice; details: oral 25 mg/kg once a day for 14 days
[7] = Plasma concentrations associated with antitumor efficacy in mice; type: in vivo; details: mouse, oral, C26 and ZR-75-1 tumor models in mice
[8] = tested on: ERK phosphorylation in colon 26 cells; assay: cells; details: Mus musculus
[9] = C26, MTD 25 mg/kg/d oral 14 days
[10] = C26, oral BID D9-22, 1.56 mg/kg/dose
[11] = C26, oral BID D9-22, 3.125 mg/kg/dose
[12] = C26, oral BID D9-22, 6.25 mg/kg/dose
[13] = C26, oral BID D9-22, 12.5 mg/kg/dose
[14] = C26, oral BID D9-22, 12.5 mg/kg/dose (toxic)
[15] = C26, oral QD D9-22, 3.125 mg/kg/dose
[16] = C26, oral QD D9-22, 6.25 mg/kg/dose
[17] = C26, oral QD D9-22, 12.5 mg/kg/dose
[18] = C26, oral QD D9-22, 25 mg/kg/dose
[19] = C26 colon, oral 25 mg/kg once a day for 14 days
[20] = Colon26, 25 mg/kg PO QD Days 11-24 (MTD)
[21] = Colon26, 100 mg/kg IV QD Days 8-12, 15-19 (MTD)
[22] = 1 mg BID, melanoma, individual patient
[23] = 1 mg QD, breast, individual patient
[24] = 1 mg QD, melanoma, individual patients
[25] = 2 mg BID, colon, individual patient
[26] = 2 mg BID, lung, individual patient
[27] = 2 mg BID, melanoma, individual patients
[28] = 4 mg BID, melanoma, individual patient
[29] = 15 mg BID, breast, individual patient
[30] = 15 mg BID, melanoma, individual patient
[31] = 20 mg BID continuous, melanoma, individual patients
[32] = 30 mg BID, melanoma, individual patient
[33] = patients, 1 mg BID, C1D21, fasting, mean
[34] = patients, 1 mg QD, C1D21, fasting, mean
[35] = patients, 2 mg BID, C1D21, fasting, mean
[36] = patients, 15 mg BID, C1D21, fasting, mean
[37] = patients, 20 mg BID continuous, C1D21, fasting, mean

SMILES: O=C(NOC[C@H](O)CO)c1ccc(F)c(F)c1Nc1ccc(I)cc1F [Compound 1, N-[(R)-2,3-dihydroxy-propoxy]-3,4-difluoro-2-(2-fluoro-4-iodo-phenylamino)-benzamide]
- animals showing complete response [1, 9]: 70%
- animals showing either a complete or partial response [1, 9]: 100%
- animals showing partial response [1, 9]: 30%
- CR (complete response) [1, 10]: 4 of 5 and 4/5
- Net Log10 kill [1, 10]: 0.0
- Non-specific Deaths [1, 10]: 0/5
- PR (partial response) [1, 10]: 1/5
- T − C [1, 10]: 13.1 days
- Tumor Free [1, 10]: 0/5
- CR (complete response) [1, 11]: 4/5
- Net Log10 kill [1, 11]: 0.3
- Non-specific Deaths [1, 11]: 0/5
- PR (partial response) [1, 11]: 1/5
- T − C [1, 11]: 15.2 days
- Tumor Free [1, 11]: 0/5
- CR (complete response) [1, 12]: 5/5
- Net Log10 kill [1, 12]: 0.3
- Non-specific Deaths [1, 12]: 0/5
- PR (partial response) [1, 12]: 0/5
- T − C [1, 12]: 15.7 days
- Tumor Free [1, 12]: 0/5
- Net Log10 kill [1, 13]: Toxic
- Non-specific Deaths [1, 13]: 4/5^h
- T − C [1, 13]: Toxic
- Tumor Free [1, 13]: Toxic
- CR (complete response) [1, 14]: 5/5 Toxic
- PR (partial response) [1, 14]: 0/5 Toxic
- CR (complete response) [1, 15]: 1 of 5 and 1/5
- Net Log10 kill [1, 15]: −0.1
- Non-specific Deaths [1, 15]: 0/5
- PR (partial response) [1, 15]: 4/5
- T − C [1, 15]: 12.1 days
- Tumor Free [1, 15]: 0/5
- CR (complete response) [1, 16]: 3/5
- Net Log10 kill [1, 16]: 0.0
- Non-specific Deaths [1, 16]: 0/5
- PR (partial response) [1, 16]: 2/5
- T − C [1, 16]: 12.9 days
- Tumor Free [1, 16]: 0/5
- CR (complete response) [1, 17]: 5/5
- Net Log10 kill [1, 17]: 0.2
- Non-specific Deaths [1, 17]: 0/5
- PR (partial response) [1, 17]: 0/5
- T − C [1, 17]: 15.0 days
- Tumor Free [1, 17]: 0/5
- CR (complete response) [1, 18]: 5/5
- Net Log10 kill [1, 18]: 0.3
- Non-specific Deaths [1, 18]: 0/5
- PR (partial response) [1, 18]: 0/5
- T − C [1, 18]: 15.3 days
- Tumor Free [1, 18]: 0/5
- CR (complete responder) [1, 19]: 7/10
- PR (partial responder) [1, 19]: 3/10
- T − C [1, 19]: 15.4 days
- Tumor Free [1, 19]: 0/10
- Tumor growth delay ([1]; C26 tumor, 25 mg/kg oral once a day for 14 days (MTD)): 15.4 days
- Total daily dose producing 70% complete tumor responses ([1]; C26 tumor, oral for 14 days): 25 mg/kg
- CR [1, 20]: 10/10
- Deaths [1, 20]: 0/10
- Net Log Kill [1, 20]: 0.2
- PR [1, 20]: 0/10
- T − C [1, 20]: 12.6 days
- CR [1, 21]: 9/10
- Deaths [1, 21]: 1/10
- Net Log Kill [1, 21]: 0.6
- PR [1, 21]: 1/10
- T − C [1, 21]: 15.8 days
- IC50 [2]: 0.59 nM
- % ROI Monkey [3]: 71.38%
- inhibition of pERK expression 24 hours after dosing (pERK in BxPC-3 tumors): 23%
- CR (complete responder) [4]: 0/10
- PR (partial responder) [4]: 0/10
- Tumor Free [4]: 0/10
- inhibition of panel of 27 kinases (panel of 27 kinases): completely refractory to inhibition
- % ROI Dog [5]: 81.16%
- Compound 1 AUC(0-24), Day 21 [6, 22]: 275 ng·h/mL
- Compound 1 Css, avg [6, 22]: 11 ng/mL
- Compound 1 AUC(0-24), Day 21 [6, 23]: 130 ng·h/mL
- Compound 1 Css, avg [6, 23]: 5.4 ng/mL
- Compound 1 AUC(0-24), Day 21 [6, 24]: 170 ng·h/mL and 112 ng·h/mL
- Compound 1 Css, avg [6, 24]: 7.1 ng/mL and 4.7 ng/mL
- Compound 1 AUC(0-24), Day 21 [6, 25]: 898 ng·h/mL
- Compound 1 Css, avg [6, 25]: 37 ng/mL
- Compound 1 AUC(0-24), Day 21 [6, 26]: 943 ng·h/mL
- Compound 1 Css, avg [6, 26]: 39 ng/mL
- Compound 1 AUC(0-24), Day 21 [6, 27]: 785 ng·h/mL and 2020 ng·h/mL
- Compound 1 Css, avg [6, 27]: 33 ng/mL and 84 ng/mL
- Compound 1 AUC(0-24), Day 21 ([6]; 4 mg BID, lung, individual patient): 1974 ng·h/mL
- Compound 1 AUC(0-24), Day 21 [6, 28]: 1426 ng·h/mL
- Compound 1 Css, avg [6, 28]: 59 ng/mL
- Compound 1 AUC(0-24), Day 21 [6, 29]: 7680 ng·h/mL
- Compound 1 Css, avg [6, 29]: 320.0 ng/mL
- Compound 1 AUC(0-24), Day 21 [6, 30]: 2480 ng·h/mL
- Compound 1 Css, avg [6, 30]: 103.3 ng/mL
- Compound 1 AUC(0-24), Day 21 [6, 31]: 5480 ng·h/mL and 5800 ng·h/mL
- Compound 1 Css, avg [6, 31]: 228.3 ng/mL and 241.7 ng/mL
- Compound 1 AUC(0-24), Day 21 ([6]; 20 mg BID, melanoma, individual patient): 10560 ng·h/mL
- Compound 1 AUC(0-24), Day 21 ([6]; 30 mg BID, colon, individual patient): 12000 ng·h/mL
- Compound 1 AUC(0-24), Day 21 [6, 32]: 12920 ng·h/mL
- Compound 1 Css, avg [6, 32]: 538.3 ng/mL
- overall coefficient of variation (CV) for AUC(0-24) ([6]; fasted state, inter-subject variability): 39%
- elimination plasma half-life ([6]; patients): 5 to 16 h
- AUC(0-24) [6, 33]: 338 ng·h/mL
- Ctrough [6, 33]: 9.17 ng/mL
- AUC(0-24) [6, 34]: 143 ng·h/mL
- Cmax [6, 34]: 22.3 ng/mL
- Ctrough [6, 34]: 3.00 ng/mL
- Tmax [6, 34]: 2 h
- AUC(0-24) [6, 35]: 1161 ng·h/mL
- Ctrough [6, 35]: 27.4 ng/mL
- Ctrough ([6]; patients, 4 mg BID, C1D21, fasting, mean): 28.0 ng/mL
- AUC(0-24) [6, 36]: 5687 ng·h/mL
- Ctrough [6, 36]: 142 ng/mL
- AUC(0-24) [6, 37]: 6572 ng·h/mL
- Cmax [6, 37]: 989 ng/mL
- Ctrough [6, 37]: 83.7 ng/mL
- T1/2 [6, 37]: 5.1 h
- Tmax [6, 37]: 2 h
- Ctrough ([6]; patients, 20 mg BID, C1D21, fasting, mean): 112 ng/mL
- Ctrough ([6]; patients, 30 mg BID, C1D21, fasting, mean): 157 ng/mL
- CR (complete responder) (H23 NSCL xenograft): 0/8
- PR (partial responder) (H23 NSCL xenograft): 1/8
- T − C (H23 NSCL xenograft): 13.9 days
- Tumor Free (H23 NSCL xenograft): 0/8
- AUC(0-t) ([7]; read-out: lowest plasma AUC(0-24) associated with meaningful in vivo antitumor efficacy): 1180 to 1880 ng·h/mL
- Cmax ([7]; read-out: lowest plasma Cmax associated with meaningful in vivo antitumor efficacy): 260 to 428 ng/mL
- IC50 ([8]; Colon 26, 1 h, read-out: Cellular IC50): 0.34 nM
- IC50 ([8]; Colon 26, read-out: IC50, phosphorylation of MAP kinase): 0.33 nM
